In EP4653437A2 (Innovo Therapeutics Inc., priority 2023, dated 2024) one finds fold induction and IC50 data, which are given here for 31 compounds.

Molecules are shown by their SMILES. Some results are limits rather than exact numbers.

For one test, the system named is A549 cells. The experiment in a line: Measurement of PGE2-increasing activity in A549 cells (IL-1β stimulated, PGE2 quantified in supernatant). It is filed as cell-based. The settings on record: Homo sapiens, 24 h; concentration of 1 µM of each compound; IL-1β treated A549 cells; read-out: Increased PGE2 production in A549 cells. The procedure:
A549 cells were prepared at a cell number of 1 x 10^5/mL in F12K medium containing 10% FBS (Fetal Bovine Serum), and 2 x 10^4/200 µL was added to each well of a 96-well cell culture plate, and then cultured in an incubator with 5% CO2 at 37 °C for 24 hours. After the culture was complete and all F12K medium was removed, all wells were washed once with 100 µL of PBS, and treated with 160 µL of serum-free F12K medium. Then, 20 µL of IL-1β diluted 10-fold to a concentration of 1 ng/mL in serum-free F12K medium was treated to wells to be treated with IL-1β, and 20 µL of serum-free F12K medium was treated to wells not treated with IL-1β. For the wells to be treated with the compound, 20 µL of the compound dissolved in 100% DMSO was diluted to a concentration 10 times of the desired compound concentration in serum-free F12K medium so that the final DMSO concentration treated to the cells was 0.1%, and for the wells not to be treated with the compound, 20 µL of DMSO diluted in serum-free F12K medium so that the final DMSO concentration treated to the cells was 0.1% was treated. In order to confirm the increase or decrease in the secretion amount of PGE2 in the supernatant collected after culturing for 24 hours in an incubator with 5% CO2 at 37 °C, PGE2 was quantified using the Prostaglandin E2 Parameter (SKGE004B).

Another test has as its target T1, human 15-PGDH (Homo sapiens, UniProt P15428).
T1 construct: purchased R&D System 5660-DH
T1 sequence (P15428 1-266): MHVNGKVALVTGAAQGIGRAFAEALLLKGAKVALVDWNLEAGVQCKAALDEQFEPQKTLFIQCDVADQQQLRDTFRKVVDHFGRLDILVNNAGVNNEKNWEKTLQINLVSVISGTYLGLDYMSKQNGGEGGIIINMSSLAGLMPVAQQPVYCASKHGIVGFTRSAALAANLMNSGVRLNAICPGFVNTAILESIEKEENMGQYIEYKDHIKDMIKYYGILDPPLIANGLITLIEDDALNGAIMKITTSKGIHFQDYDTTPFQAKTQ
The experiment in a line: Evaluation of 15-PGDH inhibitory activity (fluorescence enzyme assay, NAD+/PGE2). It is filed as biochemical. The settings on record: human 15-PGDH enzyme, fluorescence Vmax. The procedure: 15-PGDH inhibition activity of Example compounds was measured as follows. 6.7 ng of human 15-PGDH (R&D System# 5660-DH) enzyme (10 µL) was added to a black 96 well plate, 60 µL of buffer (50 mM Tris-HCl, pH 7.5, 0.01% Tween 20) was added, and 10 µL of 200 µM β-Nicotinamide adenine dinucleotide sodium salt (Sigma, Cat# N0632-5G) was added. 10 µL of (10x) compound solution in DMSO was added and reacted for 10 minutes at room temperature.

With `O=C1NCCc2ncc(-c3cccc4c(C(=O)N5CCCCC5)cnn34)cc21` [Example 195, 3-(3-(piperidine-1-carbonyl)pyrazolo[1,5-a]pyridin-7-yl)-7,8-dihydro-1,6-naphthyridin-5(6H)-one], in the test on A549 cells, the fold induction at 1 µM was above 1.5. The compound further came in with an IC50 on human 15-PGDH of at most 100 nM.
The matching figures for `CC(C)C1CCCN(C(=O)c2cnn3c(-c4ccc5c(c4)C(=O)NC5)cccc23)C1` (stereo not drawn) [Example 400, 6-(3-(3-isopropylpiperidine-1-carbonyl)pyrazolo[1,5-a]pyridin-7-yl)isoindolin-1-one]: above 1.5 and at most 100 nM.
The corresponding values for `O=C(c1cnn2c(NCc3ncccn3)cccc12)N1CCCCC1` [Example 148, piperidin-1-yl(7-((pyrimidin-2-ylmethyl)amino)pyrazolo[1,5-a]pyridin-3-yl)methanone] are above 1.5 and at most 100 nM.
Consider `Cn1nccc1-c1ccc(-c2cccc3c(C(=O)N4CCCCC4)cnn23)cc1` [Example 300, [7-[4-(2-methylpyrazol-3-yl)phenyl]pyrazolo[1,5-a]pyridin-3-yl]-(1-piperidyl)methanone], for which the fold induction at 1 µM in the test on A549 cells is below 1.5. Further, the IC50 against human 15-PGDH is at most 100 nM.
With `O=C(Nc1ccncc1)c1ccc(-c2cccc3c(C(=O)N4CCCCC4)cnn23)cn1` [Example 88, 5-(3-(piperidine-1-carbonyl)pyrazolo[1,5-a]pyridin-7-yl)-N-(pyridin-4-yl)picolinamide], the fold induction at 1 µM with A549 cells is above 1.5. Further, the IC50 at human 15-PGDH is at most 100 nM.
For `O=C(c1cnn2c(-c3ccc(Br)cc3)cccc12)N1CCCCC1` [Example 292, (7-(4-bromophenyl)pyrazolo[1,5-a]pyridin-3-yl)(piperidin-1-yl)methanone], the fold induction at 1 µM with A549 cells is above 1.5. The compound further displayed an IC50 against human 15-PGDH of at most 100 nM.
As for `CN(C)CCNC(=O)c1ccc(-c2cccc3c(C(=O)N4CCCCC4)cnn23)cc1` [Example 63, N-(2-(dimethylamino)ethyl)-4-(3-(piperidine-1-carbonyl)pyrazolo[1,5-a]pyridin-7-yl)benzamide], the fold induction at 1 µM in the test with A549 cells is above 1.5. On human 15-PGDH, this compound gave an IC50 of at most 100 nM.
The matching figures for `O=C(Nc1cccc(-c2cccc3c(C(=O)N4CCCCC4)cnn23)c1)c1cccnc1` [Example 95, N-(3-(3-(piperidine-1-carbonyl)pyrazolo[1,5-a]pyridin-7-yl)phenyl)nicotinamide]: above 1.5 and at most 100 nM.
Compound `Cc1nn(C)c(C)c1S(=O)(=O)Nc1cccc2c(C(=O)N3CCCCC3)cnn12` [Example 240, 1,3,5-trimethyl-N-[3-(piperidine-1-carbonyl)pyrazolo[1,5-a]pyridin-7-yl]pyrazole-4-sulfonamide] came in with an IC50 against human 15-PGDH above 1000 nM.
With `O=C(c1cnn2c(-c3ccc4c(c3)OCO4)cccc12)N1CCCCC1` [Example 121, (7-(benzo[d][1,3]dioxol-5-yl)pyrazolo[1,5-a]pyridin-3-yl)(piperidin-1-yl)methanone], the IC50 on human 15-PGDH is at most 100 nM.
Same read-out and setting: in the case of `O=C(c1cncc(-c2cccc3c(C(=O)N4CCCCC4)cnn23)c1)N1CC(F)(F)C1` [Example 44, (3,3-difluoroazetidin-1-yl)(5-(3-(piperidine-1-carbonyl)pyrazolo[1,5-a]pyridin-7-yl)pyridin-3-yl)methanone] it was at most 100 nM.
Same read-out and setting: for `O=C(c1cc2c(-c3ccc4c(c3)OCO4)ncnn2c1)N1CCCCC1` [Example 176, (4-(benzo[d][1,3]dioxol-5-yl)pyrrolo[2,1-f][1,2,4]triazin-6-yl)(piperidin-1-yl)methanone] the value was above 1000 nM; for `COC(=O)c1ccc(-c2cccc3c(C(=O)N4CCCCC4)cnn23)cc1` [Example 11, methyl 4-(3-(piperidine-1-carbonyl)pyrazolo[1,5-a]pyridin-7-yl)benzoate], at most 100 nM.
For the compound `CC(=O)c1cnn2c(-c3ccc(C#N)cc3)cccc12` [Example 152, 4-(3-acetylpyrazolo[1,5-a]pyridin-7-yl)benzonitrile], the IC50 against human 15-PGDH lay within 100 to 1000 nM.
With `O=C(c1cc2nc(-c3ccc4cn[nH]c4c3)ccc2[nH]1)N1CCCCC1` [Example 190, (5-(1H-indazol-6-yl)-1H-pyrrolo[3,2-b]pyridin-2-yl)(piperidin-1-yl)methanone], at human 15-PGDH, the IC50 was at most 100 nM.
Still for that read-out and setting: for `Cc1cc(-c2ccnc(Cl)c2)c2ncc(C(=O)N3CCCCC3)n2c1` [Example 166, (8-(2-chloropyridin-4-yl)-6-methylimidazo[1,2-a]pyridin-3-yl)(piperidin-1-yl)methanone] the value was 100 to 1000 nM; for `O=C(c1cnc2c(-c3cccc(Cl)c3)cc(F)cn12)N1CCCCC1` [Example 167, (8-(3-chlorophenyl)-6-fluoroimidazo[1,2-a]pyridin-3-yl)(piperidin-1-yl)methanone], at most 100 nM.
With `CN1CCc2cc(-c3cccc4c(C(=O)N5CCCCC5)cnn34)ccc2C1=O` [Example 137, 2-methyl-6-(3-(piperidine-1-carbonyl)pyrazolo[1,5-a]pyridin-7-yl)-3,4-dihydroisoquinolin-1(2H)-one], the IC50 at human 15-PGDH is at most 100 nM.
`COc1ccc(-c2ccc3c(C(=O)N4CCCCC4)cnn3c2)cc1` [Example 171, (6-(4-methoxyphenyl)pyrazolo[1,5-a]pyridin-3-yl)(piperidin-1-yl)methanone] displayed an IC50 against human 15-PGDH of at most 100 nM.
Same read-out and setting: in the case of `O=C(c1cc2nc(-c3ccc4ccccc4c3)ccc2[nH]1)N1CCCCC1` [Example 189, (5-(naphthalen-2-yl)-1H-pyrrolo[3,2-b]pyridin-2-yl)(piperidin-1-yl)methanone] it was above 1000 nM; in that of `Nc1ccc(-c2cccn3c(C(=O)N4CCCCC4)cnc23)cc1` [Example 164, (8-(4-aminophenyl)imidazo[1,2-a]pyridin-3-yl)(piperidin-1-yl)methanone], above 1000 nM.
On the same count and under the same terms, for `O=C(Cc1cccnc1)Nc1ccc(-c2cccc3c(C(=O)N4CCCCC4)cnn23)cn1` [Example 106, N-(5-(3-(piperidine-1-carbonyl)pyrazolo[1,5-a]pyridin-7-yl)pyridin-2-yl)-2-(pyridin-3-yl)acetamide] the value was at most 100 nM; for `O=C(c1cc2nc(-c3coc4ccccc34)ccc2[nH]1)N1CCCCC1` [Example 188, (5-(benzofuran-3-yl)-1H-pyrrolo[3,2-b]pyridin-2-yl)(piperidin-1-yl)methanone], 100 to 1000 nM; for `O=C(c1cc2nc(N3Cc4ccccc4C3=O)ccc2[nH]1)N1CCCCC1` [Example 191, 2-(2-(piperidine-1-carbonyl)-1H-pyrrolo[3,2-b]pyridin-5-yl)isoindolin-1-one], 100 to 1000 nM.
On the same count and under the same terms, in the case of `O=C(c1cnn2c(-c3ccc4ccccc4c3)cccc12)N1CCCCC1` [Example 129, (7-(naphthalen-2-yl)pyrazolo[1,5-a]pyridin-3-yl)(piperidin-1-yl)methanone] it was at most 100 nM; in that of `Cn1ccc2cc(-c3cccc4c(C(=O)N5CCCCC5)cnn34)ccc2c1=O` [Example 139, 2-methyl-6-(3-(piperidine-1-carbonyl)pyrazolo[1,5-a]pyridin-7-yl)isoquinolin-1(2H)-one], at most 100 nM; in that of `O=C(c1cncc(-c2cccc3c(C(=O)N4CCCCC4)cnn23)c1)N1CC2(CCC2)C1` [Example 43, (7-(5-(2-azaspiro[3.3]heptane-2-carbonyl)pyridin-3-yl)pyrazolo[1,5-a]pyridin-3-yl)(piperidin-1-yl)methanone], at most 100 nM.
Regarding `Cc1cc(-c2cccc(Cl)c2)c2ncc(C(=O)N3CCCCC3)n2c1` [Example 165, (8-(3-chlorophenyl)-6-methylimidazo[1,2-a]pyridin-3-yl)(piperidin-1-yl)methanone], on human 15-PGDH, the IC50 is 100 to 1000 nM.
Still for that read-out and setting: for `O=C(c1cnn2c(-c3cccc([N+](=O)[O-])c3)cccc12)N1CCCCC1` [Example 5, (7-(3-nitrophenyl)pyrazolo[1,5-a]pyridin-3-yl)(piperidin-1-yl)methanone] the value was at most 100 nM; for `O=C(c1cc2ncc(-c3ccc4c(c3)OCO4)cc2[nH]1)N1CCCCC1` [Example 172, (6-(benzo[d][1,3]dioxol-5-yl)-1Hpyrrolo[3,2-b]pyridin-2-yl)(piperidin-1-yl)methanone], above 1000 nM.
The compound `Nc1ccc(-c2cccc3c(C(=O)N4CCCCC4)cnn23)cc1` [Example 14, (7-(4-aminophenyl)pyrazolo[1,5-a]pyridin-3-yl)(piperidin-1-yl)methanone] showed an IC50 on human 15-PGDH of at most 100 nM.
